Data taken from patent publication US7846434B2, “Materials and methods for improved immunoglycoproteins” (Trubion Pharmaceuticals, Inc., priority 2006, dated 2010).
Where “and” joins values, the source holds several entries; their conditions need not be identical. Identical values can stand only once.

What was measured:
BJAB B cells = experiment: ADCC, 51Cr-labeled BJAB B cells with human PBMC effectors; assay type: cell-based
Description: To determine the ADCC activity of purified TRU-016, labeled BJAB B cells were used as targets and human peripheral blood mononuclear cells (PBMC) as effector cells. BJAB B cells (10^7 cells) were labeled with 500 μCi/mL ^51Cr sodium chromate for 2 hours at 37° C. in IMDM/10% FBS. PBMCs were isolated from heparinized, human whole blood by fractionation over Lymphocyte Separation Media (LSM, ICN Biomedical) gradients. Reagent samples were added to RPMI media with 10% FBS and serial dilutions of each reagent were prepared. The ^51Cr labeled BJAB were added at 2×10^4 cells/well. The PBMCs were then added at 5×10^5 cells/well for a final ratio of 25:1 effectors (PBMC):targets (BJAB). Reactions were set up in quadruplicate wells of a 96 well plate. Reactions were allowed to proceed for 6 hours at 37° C. in 5% CO2 prior to harvesting and counting. CPM released was measured on a Packard TopCounNXT from 50 μl dried culture supernatant. Percent specific killing was calculated by subtracting (cpm [mean of quadruplicate samples] of sample−cpm spontaneous release)/(cpm maximal release−cpm spontaneous release)×100, and data were plotted as % specific killing versus TRU-016 concentration.

CD37 = experiment: Binding of TRU-016 to CD37 expressing Daudi cells; design: species or system human
Description: The cells are then incubated with a FITC-conjugated goat anti-human IgG Fc specific antibody (Caltag H10501). This antibody will bind to the Fc region of the human IgG chain of TRU-016 bound to the cells. The antibody is diluted 1:50 in FACS buffer and 100 μL is added to each well. The plate is incubated at 4° C. in the dark for 45 minutes. Any unbound FITC-labeled antibody is removed by adding 100 μL of FACS buffer to each well, centrifuging at 250×g for 3 minutes at 15° C. followed by removal of supernatant. This is followed by a second wash with 200 μL/well FACS buffer. The cells are resusupended with 200 μL/well 2% paraformaldehyde and stored at 4° C. overnight. Each sample's bound fluorescence is measured on a BD FACSCalibur flow cytometry system and analyzed using Cell Quest Pro software (Becton Dickinson, ver 5.2). The GeoMean fluorescence intensity for each sample is plotted relative to the TRU-016 concentration. A dose response curve is generated and fit to a 4-parameter logistic (4-PL) curve using the SoftMax Pro software (Molecular Devices, ver 5.0.1). Titrations of TRU-016 are utilized to create a dose response curve of the untreated control and CS treated samples for comparison.

[1] = test system: CHO-K1 cells transfected with TRU-016; experiment: Effect of castanospermine on CHO-K1 TRU-016 production, shake flasks; assay type: cell-based, Chinese hamster; details: for Average TRU-016 Produced (μg/mL) ± SD: duplicate flasks; for Viability at Harvest (%): harvest day 10, listed as CS
Description: Prior to initiation of the experiments, CHO-K1 cells transfected with TRU-016 (CAS029f053) were grown in vented shake flasks in CD-CHO chemically-defined media (GIBCO-Invitrogen) supplemented with 25 uM methionine sulfoximine (MSX) at 37° C. and 5% carbon dioxide in a humidified incubator. Shaker speed was set at 125 RPM. A 400 mM stock concentration of castanospermine (Alexis Biochemicals) was prepared by dilution of the CS in sterile, distilled/deionized water (MediaTech) followed by filtration through a 13 mm Acrodisc® with a 0.2 μm HT Tuffryn membrane (Pall Corporation). Stock solution was aliquoted into sterile, O-ringed, 0.5 mL microcentrifuge tubes (Fisherbrand, Fisher Scientific) and frozen at −20° C. Approximately 1 hour prior to initiation of experiments, needed aliquots were thawed at room temperature and the contents of each vial mixed well by vortexing.
For the experiment, cells in log phase growth were seeded in the above medium into a volume of 60 mL in 250 mL shaker flasks at a density of 220,000 cells/mL and CS added at the concentration to be tested. Final CS concentrations of 800 μM, 400 μM, 200 μM, 100 μM, 50 μM, 25 μM and 0 μM were each tested in duplicate flasks. All shake flasks were incubated on a shaker platform set at 125 RPM at 37° C. and 5% carbon dioxide in a humidified incubator. Cultures were monitored at least every other day for viable cell density and overall cell viability.
Cultures were harvested on day 10 when overall cell viability was 49-62%. Cells and cellular debris were removed by centrifugation in a Sorvall Super T21 at 3000 rpm for 20 minutes after which the supernatant was sterile filtered through a Millipore Steriflip unit with a 0.22 μm Millipore Express Plus membrane and stored at 4° C. until purified.

## O[C@H]1[C@H](O)[C@@H](O)CN2CC[C@H](O)[C@H]12 [castanospermine]
BJAB B cells; 0, 10, 25, 50, 100 or 200 μM castanospermine in culture media
  ADCC activity of TRU-016 purified protein (% specific killing): dose-dependent increase
BJAB B cells; 0-100 μg/mL castanospermine in culture media, PBMC from high affinity (V/V158) and low affinity (F/F158) CD16 donors
  ADCC activity of TRU-015 purified protein (% specific killing): dose-dependent increase
BJAB B cells; culture media containing 200 μM DMJ, 10 μM kifenunsine or 200 μM castanospermine
  ADCC of TRU-016 purified protein (% specific killing): improved
CD37; CHO-K1 produced glycovariants vs control
  binding of TRU-016 to CD37 expressing cells (dose response curves): did not alter
CD37; DG44 CHO produced, all CS treated samples vs untreated
  binding of TRU-016 to CD37 expressing cells (dose response curves): did not alter
[1]; CHO-K1
  CS concentration at which the maximal suppressive effect on TRU-016 production was reached: 200 µM
[1]; CS 25 μM
  Average ICA (10^6 cells * days/mL) ± SD: 40.8 ± 0.4 10^6 cells * days/mL
  Average Specific Productivity (pg/cell/day) ± SD: 10.29 ± 0.18 pg/cell/day
  Average TRU-016 Produced as a % of Control ± SD: 96.7 ± 2.6%
  Average TRU-016 Produced (μg/mL) ± SD: 419.36 ± 11.1 µg/mL
  Viability at Harvest (%): 57.7% and 53.0%
[1]; CS 50 μM
  Average ICA (10^6 cells * days/mL) ± SD: 41.6 ± 0.9 10^6 cells * days/mL
  Average Specific Productivity (pg/cell/day) ± SD: 10.18 ± 0.45 pg/cell/day
  Average TRU-016 Produced as a % of Control ± SD: 97.5 ± 6.4%
  Average TRU-016 Produced (μg/mL) ± SD: 422.84 ± 27.8 µg/mL
  Viability at Harvest (%): 61.3%
[1]; CS 100 μM
  Average ICA (10^6 cells * days/mL) ± SD: 39.0 ± 0.4 10^6 cells * days/mL
  Average Specific Productivity (pg/cell/day) ± SD: 10.48 ± 0.07 pg/cell/day
  Average TRU-016 Produced as a % of Control ± SD: 94.3 ± 1.6%
  Average TRU-016 Produced (μg/mL) ± SD: 408.60 ± 6.9 µg/mL
  Viability at Harvest (%): 61.2% and 55.1%
[1]; CS 200 μM
  Average ICA (10^6 cells * days/mL) ± SD: 40.1 ± 2.3 10^6 cells * days/mL
  Average Specific Productivity (pg/cell/day) ± SD: 10.04 ± 0.69 pg/cell/day
  Average TRU-016 Produced as a % of Control ± SD: 92.7 ± 1.2%
  Average TRU-016 Produced (μg/mL) ± SD: 401.93 ± 5.0 µg/mL
  Viability at Harvest (%): 61.8% and 56.4%
[1]; CS 400 μM
  Average ICA (10^6 cells * days/mL) ± SD: 37.6 ± 0.3 10^6 cells * days/mL
  Average Specific Productivity (pg/cell/day) ± SD: 10.68 ± 0.28 pg/cell/day
  Average TRU-016 Produced as a % of Control ± SD: 92.6 ± 3.1%
  Average TRU-016 Produced (μg/mL) ± SD: 401.22 ± 13.3 µg/mL
  Viability at Harvest (%): 56.1% and 62.4%
[1]; CS 800 μM
  Average ICA (10^6 cells * days/mL) ± SD: 37.6 ± 1.0 10^6 cells * days/mL
  Average Specific Productivity (pg/cell/day) ± SD: 10.68 ± 0.40 pg/cell/day
  Average TRU-016 Produced as a % of Control ± SD: 92.5 ± 1.0%
  Average TRU-016 Produced (μg/mL) ± SD: 401.14 ± 4.1 µg/mL
  Viability at Harvest (%): 58.1% and 59.7%
[1]; CS 25-800 μM
  average specific productivity of the cells: no significant effect
  overall cell viability or growth (integral cell area): did not appear to significantly affect
[1]; CS 25-800 μM, even at the highest concentration of 800 μM
  decrease in production of TRU-016 relative to control: ≤ 7.5%
